Test: Pharmacokinetics of Compound 2 in mouse plasma (RP-HPLC)
Format: in vivo
Details: mice
Description: FIG. 6: Plots of plasma concentrations of compound 2 in mice following a single subcutaneous dose of 50 mg/kg. Each point corresponds to an individual mouse. A: Semi-log plot of calculated concentrations of Peak 1 values. B: Semi-log plot of values including all metabolite peaks. C: Mean and se values comparing Peak 1 only with all peaks.
The pharmacokinetic parameters for Compound 2 were determined following injection into mice.
Mouse blood was collected by cardiac puncture after anaesthesia by CO2 gas. Mice were subsequently euthanized. The blood was transferred to an EDTA tube to prevent clotting and the plasma collected after separation by centrifugation. For each sample 25 μl Plasma Was Added To 75 μl Cold 0.1% TFA (v/v) With 5 μM Hydrocortisone (HC) As an internal standard. These processed samples were stored at −20° C. until required. On thawing they were clarified by centrifugation and the extracts were analyzed on RP-HPLC.
Each 100 μl plasma extract was separated on a Zorbax SB-C18, 2.1×150 mm, 5μ column using a linear 50 min gradient of acetonitrile in 0.1% (v/v) TFA at a flow rate of 0.1 ml per minute and a column temperature of 45° C. Detection was at 250 nm.
The concentration of drug in the plasma was determined by the internal standard method of calibration by comparing the ratios of drug to HC peak areas relative to the known standards. Plasma concentrations of compound 2 in the mice from one pharmacokinetics experiment are plotted in FIG. 6

COc1ccc(CNc2nc(NCc3ccc(CN)cc3)nc(NN3CC(=O)NC3=O)n2)cc1 (single isomer, unassigned) [Compound 2, 1-[4-(4-aminomethyl-benzylamino)-6-(4-methoxybenzylamino)-{1,3,5}-triazin-2-yl-amino]-imidazolidine-2,4-dione]
Time therapeutically significant concentrations are maintained in the serum: up to 10 hr
Plateau concentration in the blood stream (50 mg/kg in aqueous solution, single subcutaneous dose): 60 µM
Level remaining in the blood stream for 6-10 hours (50 mg/kg in aqueous solution, for 6-10 hours): up to 6 μM
half-life (mouse, plasma, subcutaneous, 50 mg/kg in aqueous solution, read-out: Elimination half-life (converted)): ~1.5 h
